Values of other authors in US8926084B2, “Polymerizable ink composition, ink cartridge containing the same, and inkjet printer” (Ricoh Company, Ltd., priority 2012, dated 2015).
Where two headings read alike, the source gives them in different places.

Settings: material evaluated as no skin sensitization or negative in MSDS has an SI value less than 3, cited from earlier work

SMILES | skin sensitization as mentioned in MSDS (listed as triethylene glycol divinyl ether) | skin sensitization as mentioned in MSDS
C=COCCOCCOCCOC=C [Triethylene glycol divinylether] | free from skin sensitization | 
C=CC(=O)OCC(CC)(COC(=O)C=C)COC(=O)C=C [Trimethylol propane triacrylate (M-309), Trimethylol propane triacrylate] |  | Toagosei Company, Limited, skin sensitization causing
